# According to patent US20260345605A1, “THERAPEUTIC AGENTS FOR HEART FAILURE” (Ottawa Hospital Research Institute, priority 2023, published 2026):
# B1: CT1: Cardiotrophin 1 at 40 ng/mL was used as a positive control (protein, UniProt Q16619 1-201, looked up)
# Cardiotrophin-1: MSRREGSLEDPQTDSSVSLLPHLEAKIRQTHSLAHLLTKYAEQLLQEYVQLQGDPFGLPSFSPPRLPVAGLSAPAPSHAGLPVHERLRLDAAALAALPPLLDAVCRRQAELNPRAPRLLRRLEDAARQARALGAAVEALLAALGAANRGPRAEPPAATASAASATGVFPAKVLGLRVCGLYREWLSRTEGDLGQLLPGGSA
# How the values were obtained:
# [1] = system: DOX-induced cardiomyocyte apoptosis and ventricular dysfunction; details: cited from earlier work
# Aurora B = details: role: inhibitor; cited from earlier work
# cardiomyocytes = experiment: Overall observation on remodeling of treated cardiomyocytes; type: cell-based
# [2] = system: iPS cell-derived cardiomyocytes (iCell Cardiomyocytes); experiment: Secondary screening: morphometric analysis of iCell Cardiomyocytes; type: cell-based, human; details: for Mean Cardiomyocyte Length: iCell Cardiomyocyte, UT 213.01323; for length in iCell cardiomyocyte compared to hCT1: iCell cardiomyocytes, 96 well, four concentrations
# Source text: (§1) A library of 800 small molecule compounds that can stimulate favorable cardiac adaptation in primary neonatal rat ventricular myocytes (NRVM) was screened. To identify the beneficial modifiers of hypertrophy, the Cellomics Arrayscan High Throughput Screening platform was employed to quantify morphometric features such as, for example, length, width, and length to width ratio from images acquired using a 10× lens for DAPI-labeled nuclei and CY3 labeled α actinin stained cardiomyocytes in a 96 well format. The lead compound was also screened in iPSC derived cardiomyocytes as a part of secondary screening as it offers a physiologically relevant human cell-based model.
# (§2) A secondary screening was performed with 10 drugs identified from primary screening for their ability to induce physiological remodeling using morphometric analysis and measuring the levels of B-type natriuretic peptide (BNP), as a surrogate indicator of the hypertrophic response using ELISA. The compounds were selected based on the highly enriched targets identified in the drug set enrichment analysis with a high Z score. Cryopreserved iPS cell-derived cardiomyocytes (“iCell Cardiomyocytes”) obtained from Cellular Dynamics International (CDI, Madison, WI) were used as a cell model to perform the screening.
# The cells were plated at a density of 2.5×10^4 cells onto 25 mm diameter fibronectin coated glass coverslips in plating media for 48 hours. The media was replaced with Supplemented William's E (SWE) medium (SWE) media supplemented with cocktail containing penicillin-streptomycin, ITS+(insulin, transferrin, selenium complex, BSA, and linoleic acid), GlutaMAX™, and HEPES (Primary Hepatocyte Maintenance Supplements-GIBCO) for 48 hours. The cells were treated with controls (CT1-40 ng/mL, PE-100 uM) and drugs (AZD1152-HQPA, LY283519) at varying concentrations (2.5, 1, 0.5, and 0.25 uM) for 24 hours.
# Post treatments, the cells were washed, fixed and treated with primary antibody, secondary antibody similar to the protocol of Example 3. The effect on the morphometric parameters was assessed using Cellomics Arrayscan Vti HCS reader. The Image acquisition was performed using the Zeiss AxioVision SE64 Imaging software and analyzed using the ImageJ2 software.
# iCell cardiomyocytes were seeded at a density of 10,000 cells per well in a 96 well plate format. The cells were maintained as in Example 3 and were treated with controls (hCT1, PE) and drugs (AZD1152-HQPA, LY283519) at four different concentrations for 24 hours. The cells were then fixed and stained with a Actinin for cardiomyocytes followed by nuclear staining with DAPI. The plates were analyzed in Cellomics Arrayscan Vti HCS reader to assess morphometric changes following treatment.
# [3] = system: phospho-Histone 3 (Ser10); experiment: phospho-Histone 3 (pH3 Ser10) staining in NRVM; type: cell-based, neonatal rat
# Description: A one-way ANOVA test performed to assess statistical significance across treatment groups.
# The effect of AZD1152-HQPA on cardiac remodeling was further validated using the phospho-Histone 3 (pH3 Ser10) staining which is the downstream target of aurora kinase B. The NRVMs were plated at a density of 2.5×10^4 cells onto 25 mm diameter collagen coated coverslip. The cells were treated with controls (hCT1, PE), AZD1152-HQPA followed by a combination of PE and AZD1152-HQPA.
# Post treatment, the cells were washed, fixed, and were subjected to sequential staining of primary antibodies a Actinin and phospho-Histone 3 (Ser10). The images were acquired using the Zeiss AxioVision SE64 Imaging software and analyzed using the ImageJ software. […] The data are represented as Mean±Standard deviation.
# [4] = cited from earlier work
# aurora kinase B = experiment: pAurkB S727 immunofluorescence and remodeling in NRVM; type: cell-based, neonatal rat
# Description: Immunofluorescence was performed to validate and assess the effect of aurora B kinase inhibitor on cardiomyocyte remodeling. NRVMs were plated at a density of 2.5×10^4 cells onto 25 mm diameter collagen coated coverslip. Primary cardiomyocytes were incubated with control serum-free medium (Ctrl, SF medium), hCT1 (0.5 nM), PE (100 μM), AZD1152-HQPA (1.5 μM) and assessed for aurora kinase B activation using pAurkB s727 antibody staining. The cells were treated with a combination of PE and AZD1152 HQPA where the cells were stimulated with the drug for 4 hours following the PE treatment for 24 hours.
# Post treatment, the cells were washed, fixed, and were subjected to sequential staining of primary antibodies a Actinin and phospho-AurkB (S727). The images were acquired using the Zeiss AxioVision SE64 Imaging software and analyzed using the ImageJ2 software. Immunofluorescence was used to detect α-actinin, pAurkb S727, and nuclei were stained with DAPI.
# [5] = system: NT Pro-BNP (iCell Cardiomyocyte); experiment: NT Pro-BNP ELISA in iCell Cardiomyocyte supernatants; type: cell-based, human; details: 24 hour; for Mean NT Pro-BNP levels: iCell Cardiomyocyte, UT 2407.521
# Description: as §2
# Pro-NT BNP levels in the culture media were measured following the 24 hour treatment using the Human NT Pro-BNP DuoSet ELISA kit (R&D Systems, Minnesota USA) as per the manufacturer's instruction. […] The plates were read on BMG BioTek Molecular Devices SpectraMax Microplate Reader at 450 nm to obtain the optical density followed by reading at 540 nm for wavelength correction.
# Protein levels were identified by plotting a 4 parametric logistic regression curve using the standards provided with the kit.
# [6] = system: streptozotocin (STZ)-induced cardiac dysfunction; details: animal model of diabetic cardiomyopathy; cited from earlier work
# CDK4/6 = details: role: inhibitor; cited from earlier work
# CDK2 = details: role: inhibitor; cited from earlier work
# [7] = system: neonatal rat ventricular cardiomyocytes; experiment: Calcium transients (Fura2-AM) in neonatal rat ventricular cardiomyocytes; type: cell-based
# Description: Method: Freshly isolated wildtype neonatal rat ventricular cardiomyocytes were plated onto laminin coated glass coverslides, rinsed once and then loaded with 1 μM Fura2-AM (Life Technologies) for 15 min at 37 °C. After washing the cells thrice with Tyrode solution, measuring chambers were transferred onto a Nikon Eclipse TE2000-U microscope equipped with a fluorescence detection system (IonOptix). Ca^2+ transient values were recorded according to the corresponding FRET experiments. F340/F380 values in Fura2-AM experiments were calculated from the ratios of 510 nm emission light measured at 340 and 380 nm excitations.
# cardiomyocytes (NRVMs) = experiment: Oxygen consumption rate of cardiomyocytes (Seahorse Mito Stress Test); type: cell-based, neonatal rat; details: 24 h treatment; vs untreated control; FIG. 12
# Description: OCR detection of cardiomyocytes was conducted with the Seahorse Xfe 24 analyzer (Agilent, Santa Clara, USA). Cardiomyocytes were seeded at a density of 8×10^4/well in a special Seahorse 24-well plate (102342-100, Seahorse). After treating with hCT1, PE and drug for 24 h, the medium was replaced with XF medium containing 10 mM D-(+)-glucose (G7021, Sigma-Aldrich), and 1 mM sodium pyruvate (11360070, Thermo Fisher). The plates were placed in a CO2-free 37 °C incubator for an hour before the measurement. A Seahorse XF Cell Mito Stress Test Kit (103015-100, Seahorse) was used for detection. The basal respiration of the NRVMs was detected, and ATP-linked OCR was analyzed after treatment with 1 μM oligomycin (ATP synthase inhibitor). Then, the uncoupling agent carbonyl [COMPOUND LEFT OUT] 4-(trifluoromethoxy) phenylhydrazone (FCCP) 0.5 μM was injected to detect maximal respiration. Finally, rotenone and antimycin A (AR) were used to abolish mitochondrial respiration by inhibiting complexes I and III, respectively.
# [8] = system: primary neonatal rat ventricular myocytes (NRVM); experiment: Primary screen of 800 compounds for cardiomyocyte length (Cellomics Arrayscan morphometry, NRVM); type: cell-based, Sprague Dawley rat; details: compared to PE-treated cardiomyocyte and a control; 24 hour treatment
# Source text: as §1
# Neonatal rat ventricular myocytes (NRVM) were isolated from 2-day-old Sprague Dawley rat pups. The NRVM were cultured in plating media (Dulbecco Modified Eagle Media, 10% Fetal Bovine Serum, 100 U/mL penicillin, and […] streptomycin) at a density of 10,000 cells per well in a 96 well plate format. One day after isolation, myocytes were switched to serum-free maintenance media for 24 hours. […]
# An algorithm was developed in Cellomics Arrayscan Vti HCS reader to measure the morphological characteristics such as cardiomyocyte length, width, length-width ratio, cell area, and the intensity of α-actinin. […]
molecule,measurement,setting,value
"COc1cccc2c1C(=O)c1c(O)c3c(c(O)c1C2=O)C[C@@](O)(C(=O)CO)C[C@@H]3O[C@H]1C[C@H](N)[C@H](O)[C@H](C)O1 [DOX, doxorubicin]",DOX-induced effect on heart,[1]; CDK2 activation as mechanism,cardiomyocyte apoptosis and ventricular dysfunction
"CCN(CCO)CCCOc1ccc2c(Nc3cc(CC(=O)Nc4cccc(F)c4)[nH]n3)ncnc2c1 [AZD1152-HQPA, AZD1152-hydroxyquinazoline pyrazol anilide]",Aurora B inhibition,Aurora B,strong and selective inhibitor of Aurora B
same,cardiomyocyte remodeling,cardiomyocytes,"adaptive and compensatory remodeling that resembles a physiologic growth response, adding sarcomeres in series"
same,Mean Cardiomyocyte Length,"[2]; drug 0.25 μm, 24 hours",236 µm
same,Mean Cardiomyocyte Length,"[2]; drug 0.5 μm, 24 hours",232 µm
same,Mean Cardiomyocyte Length,"[2]; drug 1 μm, 24 hours",218 µm
same,Mean Cardiomyocyte Length,"[2]; drug 2.5 μm, 24 hours",223 µm
same,Eccentric cardiac remodeling,"[2]; iCell cardiomyocyte, 1 uM, FIG. 4A",Eccentric cardiac remodeling was observed
same,cardiomyocyte length compared with CT1 treated cells,"[2]; iCell cardiomyocytes on coverslips, 24 hours",comparable cardiomyocyte length
same,length in iCell cardiomyocyte compared to hCT1,[2]; 24 hours,increased length in iCell cardiomyocyte comparable to length induced by hCT1
same,pH3 activity,[3]; AZD1152-HQPA alone,reduced pH3 activity
same,pH3 activity,[3]; AZD1152-HQPA in combination with PE treatment,reduced pH3 activity
same,conversion to the active AZD1152-HQPA in plasma,[4],converted rapidly
same,aurora kinase b activation,aurora kinase B; AZD1152-HQPA 1.5 μM,inhibited aurora kinase b activation
same,pathological effect of PE,aurora kinase B; drug for 4 hours following PE treatment for 24 hours,able to reverse the pathological effect of PE
same,Mean NT Pro-BNP levels,[5]; drug 0.25 μm,2100.945 pg/mL
same,Mean NT Pro-BNP levels,[5]; drug 0.5 μm,1588.366 pg/mL
same,Mean NT Pro-BNP levels,[5]; drug 1 μm,2023.151 pg/mL
same,Mean NT Pro-BNP levels,[5]; drug 2.5 μm,2085.823 pg/mL
same,Pro-NT BNP levels compared to UT and CT1 treated cells,[5]; iCell cardiomyocytes,comparable and/or reduced BNP levels
CC(=O)c1c(C)c2cnc(Nc3ccc(N4CCNCC4)cn3)nc2n(C2CCCC2)c1=O [Palbociclib],effect on streptozotocin (STZ)-induced cardiac dysfunction,[6],inhibiting streptozotocin (STZ)-induced cardiac dysfunction by attenuating maladaptive cardiac remodeling
same,CDK4/6 inhibition,CDK4/6,CDK4/6 inhibitor
CC[C@H](CO)Nc1nc(NCc2ccccc2)c2ncn(C(C)C)c2n1 [Roscovitine],cardioprotective effect against DOX,[1]; DOX-associated contractile dysfunction and ventricular remodeling,attenuating myocytes from DOX-associated contractile dysfunction and ventricular remodeling
same,CDK2 inhibition,CDK2,CDK2 inhibitor
B1,Mean Cardiomyocyte Length,"[2]; positive control CT1, 40 ng/mL, 24 hours",229 µm
same,length in iCell cardiomyocyte compared to hCT1,[2]; 24 hours,positive modulator of cardiomyocyte length
same,area under the curve (AUC) of calcium transient,"[7]; compared to control, FIG. 11",increased AUC compared to control
same,calcium transient levels,"[7]; compared to control, FIG. 11",increase in calcium transient levels compared to control
same,contractility / contractile function,"[7]; inferred from peak calcium transient, AUC and time to peak",improved contractility by modest increase in peak calcium transient levels and AUC with modest decrease in time to attain those peak levels
same,oxygen consumption rate (OCR),cardiomyocytes (NRVMs),increase the rate of oxygen consumption
same,length of cardiomyocyte,[8],increase in the length of cardiomyocyte
same,Mean NT Pro-BNP levels,[5]; control CT1,2240.774 pg/mL
